Target: human H4 receptor (Homo sapiens (Human), UniProt Q9H3N8)
Assay: Binding assay on recombinant human histamine H4 receptor ([3H]histamine competition, SK-N-MC cell membranes)
Conditions: membranes harvested with cell harvester; [3H]histamine 10 nM; average of results; read-out: Cell Harvester Ki
Procedure, shortened: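 Membranes from SK-N-MC cells stably or transiently transfected with human H4 receptor, prepared by homogenization and 30,000 g centrifugation in Tris/EDTA. Bound [3H]histamine separated by rapid filtration on PEI-treated GF/C filters, washed with ice-cold Tris/EDTA, counted by scintillation. '>' values denote highest concentration tested.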

Ki [nM]	Compound
86.7	N[C@H]1CCN(c2ccnc(NC3CCCC3)n2)C1 [Example 160, 4-[(3S)-3-Aminopyrrolidin-1-yl]-N-cyclopentylpyrimidin-2-amine]
1300	CN1CCN(c2ccnc(NCCCO)n2)CC1 [Example 161, 3-{[4-(4-Methylpiperazin-1-yl)pyrimidin-2-yl]amino}propan-1-ol]
278	Cc1ccc(CNc2nccc(N3CCN(C)CC3)n2)cc1 [Example 163]
36.2	CSCCNc1nccc(N2CCN(C)CC2)n1 [Example 164, 4-(4-Methylpiperazin-1-yl)-N-[2-(methylsulfanyl)ethyl]pyrimidin-2-amine]
732	CN1CCN(c2ccnc(NCc3ccccc3)n2)CC1 [Example 165, N-Benzyl-4-(4-methylpiperazin-1-yl)pyrimidin-2-amine]
> 10000	CC(C)(CO)CNc1nccc(N2CCNCC2)n1 [Example 166, 2,2-Dimethyl-3-[(4-piperazin-1-ylpyrimidin-2-yl)amino]propan-1-ol]
34.9	CN[C@@H]1CCN(c2ccnc(NCCCO)n2)C1 [Example 167, 3-({4-[(3R)-3-(Methylamine)pyrrolidin-1-yl]pyrimidin-2-yl}amino)propan-1-ol]
483	C[C@@H]1[C@@H](Nc2nccc(N3CCN(C)CC3)n2)C[C@H]2C[C@@H]1C2(C)C [Example 168, 4-(4-Methylpiperazin-1-yl)-N-[(1S,2S,3S,5R)-2,6,6-trimethylbicyclo[3.1.1]hept-3-yl]pyrimidin-2-amine]
9.67	CN[C@@H]1CCN(c2ccnc(NCC(C)(C)CO)n2)C1 [Example 169, 2,2-Dimethyl-3-({4-[(3R)-3-(methylamino)pyrrolidin-1-yl]pyrimidin-2-yl}amino)propan-1-ol]
144	CN[C@@H]1CCN(c2ccnc(NCc3ccc(C)cc3)n2)C1 [Example 170, 4-[(3R)-3-(Methylamino)pyrrolidin-1-yl]-N-(4-methylbenzyl)pyrimidin-2-amine]
3.89	CNC1CN(c2ccnc(NCC(C)C)n2)C1 [Example 171, 4-[3-(Methylamino)azetidin-1-yl]-N-(2-methylpropyl)pyrimidin-2-amine]
13.7	CNC1CN(c2ccnc(NC3CCCC3)n2)C1 [Example 172, N-Cyolopentyl-4-[3-(methylamino)azetidin-1-yl]pyrimidin-2-amine]
745	CN1CCN(c2ccnc(NCCc3ccccc3)n2)CC1 [Example 173, 4-(4-Methylpiperazin-1-yl)-N-(2-phenylethyl)pyrimidin-2-amine]
19.1	CN[C@@H]1CCN(c2ccnc(NCc3ccccc3)n2)C1 [Example 174, N-Benzyl-4-[(3R)-3-(methylamine)pyrrolidin-1-yl]pyrimidin-2-amine]
816	C[C@@H](Nc1nccc(N2CC[C@@H](N)C2)n1)c1ccccc1 [Example 175, 4-[(3R)-3-Aminopyrrolidin-1-yl]-N-[(1R)-1-phenylethyl]pyrimidin-2-amine]
458	CN[C@@H]1CCN(c2ccnc(NCc3ccc(OC)cc3)n2)C1 [Example 176, N-(4-Methoxybenzyl)-4-[(3R)-30(methylamino)pyrrolidin-1-yl]pyrimidin-2-amine]
523	CC(C)(O)CNc1nccc(N2CCNCC2)n1 [Example 177, 2-Methyl-1-[(4-piperazin-1-ylpyrimidin-2-yl)amino]propan-2-ol]
243	CNC1CN(c2ccnc(NCc3ccc(F)cc3)n2)C1 [Example 178, N-(4-Fluorobenzyl)-4-[3-(methylamino)azetidin-1-yl]pyrimidin-2-amine]

Ki [nM]	Compound
788	N[C@@H]1CCN(c2ccnc(NCc3ccccc3)n2)C1 [Example 179, 4-[(3R)-3-Aminopyrrolidin-1-yl]-N-benzylpyrimidin-2-amine]
116	CN[C@@H]1CCN(c2ccnc(N[C@H](C)c3ccccc3)n2)C1 [Example 180, 4-[(3R)-3-(Methylamino)pyrrolidin-1-yl]-N-[(1R)-1-phenylethyl]pyrimidin-2-amine]
9.07	N[C@@H]1CCN(c2ccnc(NC3CCCCC3)n2)C1 [Example 181, 4-[(3R)-3-Aminopyrrolidin-1-yl]-N-cyclohexylpyrimidin-2-amine]
45.4	CNC1CN(c2ccnc(NCCOC)n2)C1 [Example 182, N-(2-Methoxyethyl)-4-[3-(methylamino)azetidin-1-yl]pyrimidin-2-amine]
15.6	CN[C@@H]1CCN(c2ccnc(NCCc3ccccc3)n2)C1 [Example 183, 4-[(3R)-3-(Methylamino)pyrrolidin-1-yl]-N-(2-phenylethyl)pyrimidin-2-amine]
1.58	CN[C@@H]1CCN(c2ccnc(NC3CC4CC(C3C)C4(C)C)n2)C1 (stereo partly drawn) [Example 184, 4-[(3R)-3-(Methylamino)pyrrolidin-1-yl]-N-[(1S,2S,3S,5R)-2,6,6-trimethylbicyolo[3.1.1]hept-3-yl]pyrimidin-2-amine]
1730	COc1ccc(CNc2nccc(N3CC[C@@H](N)C3)n2)cc1 [Example 185, 4-[(3R)-3-Aminopyrrolidin-1-yl]-N-(4-methoxybenzyl)pyrimidin-2-amine]
691	Cc1ccc(CNc2nccc(N3CC[C@@H](N)C3)n2)cc1 [Example 186, 4-[(3R)-3-Aminopyrrolidin-1-yl]-N-(4-methylbenzyl)pyrimidin-2-amine]
71.5	c1cc(N2CCNCC2)nc(NCC2CCCC2)n1 [Example 187, N-(Cyclopentylmethyl)-4-piperazin-1-ylpyrimidin-2-amine]
1.68	CN[C@@H]1CCN(c2ccnc(N[C@H]3C[C@H]4CC[C@]3(C)C4(C)C)n2)C1 [Example 190, 4-[(3R)-3-(Methylamino)pyrrolidin-1-yl]-N-[(1R,2S,4R)-1,7,7-trimethylbicyclo[2.2.1]hept-2-yl]pyrimidin-2-amine]
3.58	CN[C@@H]1CCN(c2ccnc(NCC3CCCCC3)n2)C1 [Example 191, N-(Cyclohexylmethyl)-4-[(3R)-3-(methylamino)pyrrolidin-1-yl]pyrimidin-2-amine]
2.42	CN[C@@H]1CCN(c2ccnc(NC3CCCCC3)n2)C1 [Example 192, N-Cyclohexyl-4-[(3R)-3-(methylamino)pyrrolidin-1-yl]pyrimidin-2-amine]
7.75	c1cc(N2CCCNCC2)nc(NC2CC3CCC2C3)n1 (stereo not drawn) [Example 195, N-Bicyclo[2.2.1]hept-2-yl-4-(1,4-diazepan-1-yl)pyrimidin-2-amine]
224	CCCCNc1nccc(N2CC[C@H](N)C2)n1 [Example 196, 4-[(3S)-3-Aminopyrrolidin-1-yl]-N-butylpyrimidin-2-amine]
17.3	N[C@@H]1CCN(c2ccnc(NCC3CCCCC3)n2)C1 [Example 197, 4-[(3R)-3-Aminopyrrolidin-1-yl]-N-(cyclohexylmethyl)pyrimidin-2-amine]
55	CC(C)CNc1nccc(N2CC[C@H](N)C2)n1 [Example 198, 4-[(3S)-3-Aminopyrrolidin-1-yl]-N-(2-methylpropyl)pyrimidin-2-amine]
2300	N[C@H]1CCN(c2ccnc(NCc3ccc(F)cc3)n2)C1 [Example 199, 4-[(3S)-3-Aminopyrrolidin-1-yl]-N-(4-fluorobenzyl)pyrimidin-2-amine]
860	CN[C@H]1CCN(c2ccnc(NCc3ccccn3)n2)C1 [Example 200, 4-[(3S)-3-(Methylamino)pyrrolidin-1-yl]-N-(pyridin-2-ylmethyl)pyrimidin-2-amine]

— patent US9732087B2, “Diamino-pyridine, pyrimidine, and pyridazine modulators of the histamine H4 receptor” (JANSSEN PHARMACEUTICA NV, priority 2008, dated 2017)
